Data from US12258578B2, “Agent for accelerating maturation or aging of cells” (JUNTENDO EDUCATIONAL FOUNDATION, priority 2019, dated 2025).
Entries after “also recorded” stand apart in the source; their conditions may differ.

Key:
[1] = test system: nerve cells induced from human iPS cells; experiment: GFP-Synapsin fluorescent reporter screening for nerve cell maturation; assay type: cell-based; settings: for acceleration of cell maturation: human iPS cell-derived neurons, same manner as in Example 1
Method: (1) A nerve cell cluster (Neurosphere) containing neural stem cells was prepared in suspension culture from iPS cells, passaged six times, and differentiated into nerves. A mature nerve cell-specific fluorescent reporter (GFP-Synapsin) was introduced using a lentiviral vector. Thereafter, the culture was switched to adherent culture, and 10 μM each of the low-molecular compound library (Sigma Aldrich) was added to the culture medium for neural differentiation, and the culture was performed for 17 days. The fluorescence intensity of GFP-Synapsin was quantified using an imaging cytometer (In cell analyzer). Using an astrocyte conditioned medium (ACM), which accelerates neural differentiation, as a control, compounds showing a fluorescence intensity closer to the control were selected (FIG. 1 and FIG. 2).

DAN from human iPS cells [2] = experiment: Lamin B1 immunostaining of iPS cell-derived DAN; assay type: cell-based; settings: day 7
Method: (1) The differentiation induction of DAN from human iPS cells was performed using the same method as in Example 2(2), and immunostaining using a Lamin B1 antibody was performed on day 7 (FIGS. 8-A-C).

DAN from human iPS cells [3] = experiment: γH2AX (Ser139) immunostaining of iPS cell-derived DAN; assay type: cell-based; settings: day 7
Method: (2) The differentiation induction of DAN from human iPS cells was performed using the same method as in Example 2(2), and immunostaining using a γH2AX (Ser139) antibody was performed on day 7 (FIGD. 8-D-F).

[4] = test system: human iPS cells differentiated into dopaminergic nerve cells; experiment: Quantification of Nestin-positive cells during dopaminergic neural differentiation; assay type: cell-based; settings: 1, 5 or 10 μM, culture for 10 days
Method: (§1) (1) When neural differentiation of human iPS cells into dopaminergic nerve cells was performed, KU-60019 was added to the neural differentiation medium at 1, 5 or 10 μM, followed by culture for 10 days, and the cells expressing Nestin, which is a marker of undifferentiated nervous system, were quantified to evaluate the differentiation efficiency (the culture conditions are shown in FIG. 3).

SHSY5 cells = experiment: Cell aging of SHSY5 cells (nuclear membrane staining, qPCR); assay type: cell-based, human
Source text: A decrease in Lamin B1 (LMNB1) mRNA (FIG. 12B), an increase in aging marker p16 mRNA (FIG. 12C) and a […] in aging marker p21 mRNA were detected by qPCR (mean±SEM, n=4, *p<0.01.) (FIG. 12D). That is, also in SHSY5 (immortalized cell line of human nervous system), a breakdown of the nuclear membrane was observed by the addition of KU60019.

[5] = test system: iPS cell-derived nerve cells (DAN); experiment: Intracellular NAD+ concentration by colorimetric method; assay type: cell-based, human; settings: cells recovered after 10 days
Method: (3) The differentiation induction of DAN was performed using the same method as in (2), the cells were recovered after 10 days, and the intracellular NAD^+ concentration was measured using a colorimetric method (FIG. 7).

[6] = test system: human fibroblasts derived from a young donor; experiment: Aging-specific marker SA-Gal in human fibroblasts; assay type: cell-based
[7] = test system: PARK4-iPS cell-derived DAN; experiment: Cell loss of PARK4-iPS cell-derived DAN (TH antibody); assay type: cell-based, human
Source text: Since KU-60019 accelerates neural differentiation from human iPS cells and cell aging, it was verified whether the culture period required for phenotypic detection in DAN differentiated from Parkinson's disease-iPS cells could be shortened by the addition of KU-60019 to a conventional culture method. The culture periods required until phenotypic detection in the case of addition of KU-60019 and in the case of non-addition of KU-60019 were compared using iPS cells established from a patient with typical PARK 4 (α-synuclein duplication), which develops at a relatively old age (50s and beyond) among hereditary Parkinson's diseases. (1) After performing the differentiation induction of PARK4-iPS cell-derived DAN using the same method as in Example 2(2), the cell loss of DAN was analyzed on days 7 and 10 using a TH antibody.

[8] = test system: dopaminergic neurons (DAN) differentiated from human iPS cells; experiment: Quantification of tyrosine hydroxylase (TH) positive cells (DAN); assay type: cell-based; settings: 1, 5 or 10 μM
Method: as §1, with “3). […] (2) In order to compare the amounts of dopaminergic neurons (DAN) differentiated by the same method as in (1), the quantification of tyrosine hydroxylase (TH) positive cells, which is a specific marker of mature DAN, was performed (FIG. 6).” for “3).”

[9] = test system: human fibroblasts derived from a young donor; experiment: Aging-specific nuclear membrane abnormalities in human fibroblasts (Lamin B1, Lamin A/C); assay type: cell-based
Source text: The proportion of cells showing normal nuclear membrane structure in fibroblasts derived from a young donor was reduced by the action of KU60019 (mean±SEM, n=6, *p<0.01.) (FIG. 10B). In fibroblasts collected from an old donor, when compared with human fibroblasts collected from a young donor, a decrease in Lamin B1, which is a nuclear membrane marker, as an aging-specific nuclear membrane abnormality is observed.

Structure (SMILES): O=c1cc(-c2cccc3c2Sc2ccccc2S3)oc(N2CCOCC2)c1 [KU55933]
- acceleration of cell maturation [1]: only in the cells to which KU60019 was added

Structure (SMILES): C[C@@H]1CN(CC(=O)Nc2ccc3c(c2)Cc2cccc(-c4cc(=O)cc(N5CCOCC5)o4)c2S3)C[C@H](C)O1 [KU-60019]
- structure of Lamin B1 (nuclear membrane) (DAN from human iPS cells [2]): degraded
- γH2AX accumulation (DNA damage) (DAN from human iPS cells [3]): accumulated in the nucleus
- amount of Nestin-positive cells [4]: decreased depending on the concentration
- aging-specific nuclear membrane abnormalities (SHSY5 cells; SHSY5 cells, Lamin B1 / Lamin A/C staining): aging-specific nuclear membrane abnormalities were caused
- Lamin B1 (LMNB1) mRNA (SHSY5 cells; qPCR, n=4, p<0.01): decrease
- aging marker p16 mRNA (SHSY5 cells; qPCR, n=4, p<0.01): increase; also recorded: significantly elevated
- intracellular NAD+ concentration [5]: decreased depending on the concentration
- fluorescence intensity of GFP-Synapsin ([1]; 10 μM, 17 days culture, compound library screening): highest fluorescence intensity among the compounds selected
- acceleration of cell maturation [1]: acceleration of cell maturation was observed
- SA-Gal positive cells [6]: increased to a level equivalent to that in fibroblasts derived from an old donor
- SA-Gal intensity ([6]; n=6, p<0.01): increased similarly
- cell loss of DAN compared to normal control cells ([7]; day 7 of culture): no significant increase in cell loss
- cell loss of DAN compared to normal control cells ([7]; day 10 of culture): lost cells significantly increased
- culture time until Parkinson's disease phenotype is detected ([7]; nerve cells derived from iPS cells of a Parkinson's disease patient): 7 days
- TH positive cells (DAN) ([8]; culture continued to day 10): this difference disappeared
- TH positive cells (DAN) ([8]; day 7 of culture): increased depending on the concentration
- aging-specific nuclear membrane abnormality (Lamin B1) ([9]; fibroblasts derived from a young donor): reduction of Lamin B1
- proportion of cells showing normal nuclear membrane structure ([9]; fibroblasts derived from a young donor, n=6, p<0.01): reduced
- Lamin B1 (nuclear membrane marker) ([9]; young donor-derived fibroblasts, added for 72 hours): a decrease in Lamin B1 was found

Structure (SMILES): O=c1cc(N2CCOCC2)oc2c(-c3cccc4c3sc3ccccc34)cccc12 [NU7441]
- acceleration of cell maturation [1]: only in the cells to which KU60019 was added
